# Measured values from patent publication US11878965B2, “Inhibitors of peptidylarginine deiminases” (Gilead Sciences, Inc., priority 2020, dated 2024).
# pIC50: −log10 of the molar value.
# Molecular target: human PAD4 (Homo sapiens (Human), UniProt Q9UM07)
# Experiment: In Vitro PAD4 BAEE Biochemical Assay
# Conditions: human PAD4, BAEE substrate; 5 nM PAD4, 2 mM calcium chloride, 3 mM BAEE; geometric mean of multiple experiments
# In short: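 Recombinant human PAD4 (His-SUMO tag removed, E. coli-expressed), 5 nM, preincubated with compound and 2 mM CaCl2 30 min at 25 °C in MOPS pH 7.6 with DTT; 3 mM BAEE added for 2 h at 25 °C, EDTA stop. Released ammonia detected by o-phthalaldehyde/DTT fluorescence (ex 405, em 535 nm).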
# Sequence of human PAD4 (Q9UM07 2-663): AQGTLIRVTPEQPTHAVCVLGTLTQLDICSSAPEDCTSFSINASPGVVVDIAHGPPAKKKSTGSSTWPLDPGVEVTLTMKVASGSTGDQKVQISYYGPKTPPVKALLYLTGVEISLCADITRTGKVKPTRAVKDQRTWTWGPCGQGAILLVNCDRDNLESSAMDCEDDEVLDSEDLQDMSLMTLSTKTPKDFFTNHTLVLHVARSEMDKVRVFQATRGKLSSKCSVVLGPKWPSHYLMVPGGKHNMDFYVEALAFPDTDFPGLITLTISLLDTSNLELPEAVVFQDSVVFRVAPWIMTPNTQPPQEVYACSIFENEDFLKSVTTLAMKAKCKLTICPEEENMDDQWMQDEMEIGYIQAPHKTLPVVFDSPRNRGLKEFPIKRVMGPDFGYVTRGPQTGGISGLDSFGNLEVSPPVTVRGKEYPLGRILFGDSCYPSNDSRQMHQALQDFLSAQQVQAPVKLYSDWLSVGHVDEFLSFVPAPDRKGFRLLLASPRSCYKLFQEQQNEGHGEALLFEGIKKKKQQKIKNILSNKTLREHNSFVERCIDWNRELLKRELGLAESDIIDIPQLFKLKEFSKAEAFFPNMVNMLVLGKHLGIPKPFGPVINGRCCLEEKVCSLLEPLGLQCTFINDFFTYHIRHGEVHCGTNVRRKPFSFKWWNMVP
row,pIC50,Compound
1,7.15,"COc1cc(C(=O)N2CCC[C@@H](N)C2)cc2nc(-c3cc4ccc([C@@H](C)NC(=O)C56CC(F)(C5)C6)nc4n3CC3CC3)n(C3CC3)c12 [Example 125, N-((R)-1-(2-(5-((R)-3-aminopiperidine-1-carbonyl)-1-cyclopropyl-7-methoxy-1H-benzo[d]imidazol-2-yl)-1-(cyclopropylmethyl)-1H-pyrrolo[2,3-b]pyridin-6-yl)ethyl)-3-fluorobicyclo[1.1.1]pentane-1-carboxamide]"
2,5.74,"COc1cc(C(=O)N2C[C@H](N)CC[C@@H]2C)cc2nc(-c3cc4ccc(-c5cccc6c5NC(=O)C6)nc4n3CC3CC3)n(C)c12 [Example 259, 7-(2-(5-((2S,5R)-5-amino-2-methylpiperidine-1-carbonyl)-7-methoxy-1-methyl-1H-benzo[d]imidazol-2-yl)-1-(cyclopropylmethyl)-1H-pyrrolo[2,3-b]pyridin-6-yl)indolin-2-one]"
3,7.17,"COc1cc(C(=O)N2C[C@H](N)CCN2C)cc2nc(-c3cc4ccc([C@@H](C)NC(=O)c5cccnc5)nc4n3CC3CC3)n(C)c12 [Example 201, N-((R)-1-(2-(5-((R)-5-amino-2-methylhexahydropyridazine-1-carbonyl)-7-methoxy-1-methyl-1H-benzo[d]imidazol-2-yl)-1-(cyclopropylmethyl)-1H-pyrrolo[2,3-b]pyridin-6-yl)ethyl)nicotinamide]"
4,6.36,"COc1cc(C(=O)N2CCC[C@@H](N)C2)cc2nc(-c3cc4ccc(N5CCCN(C)S5(=O)=O)nc4n3CC3CC3)n(C)c12 [Example 106, (R)-(3-aminopiperidin-1-yl)(2-(1-(cyclopropylmethyl)-6-(6-methyl-1,1-dioxido-1,2,6-thiadiazinan-2-yl)-1H-pyrrolo[2,3-b]pyridin-2-yl)-7-methoxy-1-methyl-1H-benzo[d]imidazol-5-yl)methanone]"
5,6.26,"COc1cc(C(=O)N2CCC[C@@H](N)C2)cc2nc(-c3cc4ccc(S(=O)(=O)C(C)C)nc4n3CC3CC3)n(C)c12 [Example 254, (R)-(3-aminopiperidin-1-yl)(2-(1-(cyclopropylmethyl)-6-(isopropylsulfonyl)-1H-pyrrolo[2,3-b]pyridin-2-yl)-7-methoxy-1-methyl-1H-benzo[d]imidazol-5-yl)methanone]"
6,6.18,"COc1cc(C(=O)N2C[C@H](N)CC[C@@H]2C)cc2nc(-c3cc4ccc(-c5ccc6nnnn6c5C)nc4n3CC3CC3)n(C)c12 [Example 275, ((2S,5R)-5-amino-2-methylpiperidin-1-yl)(2-(1-(cyclopropylmethyl)-6-(5-methyltetrazolo[1,5-a]pyridin-6-yl)-1H-pyrrolo[2,3-b]pyridin-2-yl)-7-methoxy-1-methyl-1H-benzo[d]imidazol-5-yl)methanone]"
7,4.30,"COc1cc(C(=O)N2CC3(CCCN3)C2)cc2nc(-c3cc4ccc(N(C(F)F)S(C)(=O)=O)nc4n3CC3CC3)n(C)c12 [Example 77, N-(1-(cyclopropylmethyl)-2-(7-methoxy-1-methyl-5-(2,5-diazaspiro[3.4]octane-2-carbonyl)-1H-benzo[d]imidazol-2-yl)-1H-pyrrolo[2,3-b]pyridin-6-yl)-N-(difluoromethyl) methanesulfonamide]"
8,5.14,"COc1cc(C(=O)N2CC3CCCC3(N)C2)cc2nc(-c3cc4ccc(N(C(F)F)S(C)(=O)=O)nc4n3CC3CC3)n(C)c12 (stereo not drawn) [Example 73, N-(2-(5-(3a-aminooctahydrocyclopenta[c]pyrrole-2-carbonyl)-7-methoxy-1-methyl-1H-benzo[d]imidazol-2-yl)-1-(cyclopropylmethyl)-1H-pyrrolo[2,3-b]pyridin-6-yl)-N-(difluoromethyl) methanesulfonamide]"
9,6.49,"COc1cc(C(=O)N2C[C@H](N)CC[C@@H]2C)cc2nc(-c3cc4ccc(N5C(=O)CC[C@@H]5C)nc4n3CC3CC3)n(C)c12 [Example 285, (S)-1-(2-(5-((2S,5R)-5-amino-2-methylpiperidine-1-carbonyl)-7-methoxy-1-methyl-1H-benzo[d]imidazol-2-yl)-1-(cyclopropylmethyl)-1H-pyrrolo[2,3-b]pyridin-6-yl)-5-methylpyrrolidin-2-one]"
10,6.80,"COc1cc(C(=O)N2CCC[C@@H](N)C2)cc2nc(-c3cc4ccc(N5CCCCS5(=O)=O)nc4n3CC3CC3)n(C)c12 [Example 97, (R)-(3-aminopiperidin-1-yl) (2-(1-(cyclopropylmethyl)-6-(1,1-dioxido-1,2-thiazinan-2-yl)-1H-pyrrolo[2,3-b]pyridin-2-yl)-7-methoxy-1-methyl-1H-benzo[d]imidazol-5-yl)methanone]"
11,7.03,"COc1cc(C(=O)N2CCC[C@@H](N)C2)cc2nc(-c3cc4ccc([C@@H](C)NC(=O)C56CC(F)(C5)C6)nc4n3CC3CC3)n(C)c12 [Example 122, N-((R)-1-(2-(5-((R)-3-aminopiperidine-1-carbonyl)-7-methoxy-1-methyl-1H-benzo[d]imidazol-2-yl)-1-(cyclopropylmethyl)-1H-pyrrolo[2,3-b]pyridin-6-yl)ethyl)-3-fluorobicyclo[1.1.1]pentane-1-carboxamide]"
12,6.48,"CCCN(c1ccc2cc(-c3nc4cc(C(=O)N5CCC[C@@H](N)C5)cc(OC)c4n3C)n(CC3CC3)c2n1)S(C)(=O)=O [Example 10, (R)-N-(2-(5-(3-aminopiperidine-1-carbonyl)-7-methoxy-1-methyl-1H-benzo[d]imidazol-2-yl)-1-(cyclopropylmethyl)-1H-pyrrolo [2,3-b]pyridin-6-yl)-N-propylmethanesulfonamide]"
13,6.64,"COc1cc(C(=O)N2C[C@H](N)CCN2C)cc2nc(-c3cc4ccc([C@@H](C)NC(=O)c5nc(C)ccc5C)nc4n3CC3CC3)n(C)c12 [Example 176, N-((R)-1-(2-(5-((R)-5-amino-2-methylhexahydropyridazine-1-carbonyl)-7-methoxy-1-methyl-1H-benzo[d]imidazol-2-yl)-1-(cyclopropylmethyl)-1H-pyrrolo[2,3-b]pyridin-6-yl)ethyl)-3,6-dimethylpicolinamide]"
14,7.21,"COc1cc(C(=O)N2CCC[C@@H](N)C2)cc2nc(-c3cc4ccc([C@@H](C)NC(=O)C(C)(C)C)nc4n3CC3CC3)n(C3CC3)c12 [Example 128, N-((R)-1-(2-(5-((R)-3-aminopiperidine-1-carbonyl)-1-cyclopropyl-7-methoxy-1H-benzo[d]imidazol-2-yl)-1-(cyclopropylmethyl)-1H-pyrrolo[2,3-b]pyridin-6-yl)ethyl)pivalamide]"
15,7.04,"COc1cc(C(=O)N2C[C@H](N)CCN2C)cc2nc(-c3cc4ccc([C@@H](C)NC(=O)c5cccnc5C)nc4n3CC3CC3)n(C)c12 [Example 177, N-((R)-1-(2-(5-((R)-5-amino-2-methylhexahydropyridazine-1-carbonyl)-7-methoxy-1-methyl-1H-benzo[d]imidazol-2-yl)-1-(cyclopropylmethyl)-1H-pyrrolo[2,3-b]pyridin-6-yl)ethyl)-2-methylnicotinamide]"
16,7.09,"COc1cc(C(=O)N2C[C@H](N)CCN2C)cc2nc(-c3cc4ccc([C@@H](C)NC(=O)c5c(C)ccnc5C)nc4n3CC3CC3)n(C)c12 [Example 178, N-((R)-1-(2-(5-((R)-5-amino-2-methylhexahydropyridazine-1-carbonyl)-7-methoxy-1-methyl-1H-benzo[d]imidazol-2-yl)-1-(cyclopropylmethyl)-1H-pyrrolo[2,3-b]pyridin-6-yl)ethyl)-2,4-dimethylnicotinamide]"

row,Compound,pIC50
1,"(S)-2-(1-(cyclopropylmethyl)-6- ((N-(difluoromethyl) methyl)sulfonamido)-1H- pyrrolo[2,3-b]pyridin-2-yl)- N-(4,4-difluoropiperidin- 3-yl)-6-fluoro- 1-methyl-1H-benzo[d] imidazole-5-carboxamide [Example 92]",6.21
2,"COc1cc(C(=O)N2[C@H]3CC[C@@H]2[C@H](N)C3)cc2nc(-c3cc4ccc([C@@H](C)NC(=O)Cn5cccn5)nc4n3CC3CC3)n(C)c12 [Example 174, N-((R)-1-(2-(5-((1R,2R,4S)-2-amino-7-azabicyclo[2.2.1]heptane-7-carbonyl)-7-methoxy-1-methyl-1H-benzo[d]imidazol-2-yl)-1-(cyclopropylmethyl)-1H-pyrrolo[2,3-b]pyridin-6-yl)ethyl)-2-(1H-pyrazol-l-yl)acetamide]",7.35

# Same assay, conditions: recombinant PAD4 5 nM, 2 mM calcium chloride, 3 mM BAEE substrate; geometric mean of multiple experiments
row,pIC50,Compound
1,7.04,"COc1cc(C(=O)N2C[C@H](N)[C@@H]3CC[C@H]2C3)cc2nc(-c3cc4ccc([C@@H](C)NC(=O)C56CC(F)(C5)C6)nc4n3CC3(F)CC3)n(C)c12 [Example 291, N-((R)-1-(2-(5-((1S,4R,5R)-4-amino-2-azabicyclo[3.2.1]octane-2-carbonyl)-7-methoxy-1-methyl-1H-benzo[d]imidazol-2-yl)-1-((1-fluorocyclopropyl)methyl)-1H-pyrrolo[2,3-b]pyridin-6-yl)ethyl)-3-fluorobicyclo[1.1.1] pentane-1-carboxamide]"
2,7.08,"COc1cc(C(=O)N2C[C@H](N)[C@@H]3CC[C@H]2C3)cc2nc(-c3cc4ccc([C@@H](C)NC(=O)c5cnn(C(F)(F)F)c5)nc4n3CC3CC3)n(C)c12 [Example 320, N-((R)-1-(2-(5-((1S,4R,5R)-4-amino-2-azabicyclo[3.2.1]octane-2-carbonyl)-7-methoxy-1-methyl-1H-benzo[d]imidazol-2-yl)-1-(cyclopropylmethyl)-1H-pyrrolo[2,3-b]pyridin-6-yl)ethyl)-1-(trifluoromethyl)-1H-pyrazole-4-carboxamide]"
3,7.18,"COc1cc(C(=O)N2C[C@H](N)[C@@H]3CC[C@H]2C3)cc2nc(-c3cc4ccc([C@@H](C)NC(=O)c5ccc(C#CC(C)(C)S(C)(=O)=O)nc5)nc4n3CC3CC3)n(C)c12 [Example 308, N-((R)-1-(2-(5-((1S,4R,5R)-4-amino-2-azabicyclo[3.2.1]octane-2-carbonyl)-7-methoxy-1-methyl-1H-benzo[d]imidazol-2-yl)-1-(cyclopropylmethyl)-1H-pyrrolo[2,3-b]pyridin-6-yl)ethyl)-6-(3-methyl-3-(methylsulfonyl)but-1-yn-1-yl)nicotinamide]"
